# Activity calls are given as the source filed them. The calls are words filed in the database; no cut-off is given here.
# How the values were obtained:
# [1] = test system: INS1; test: Secretion of insulin in INS1 cells at 20 uM; type: functional, cell-based; conditions: Rattus norvegicus
# [2] = Stability in human liver microsomes at […] at pH 7.4; type: ADME, Microsome; conditions: read-out: Stability
# [3] = test system: Pancreatic beta cell; test: Protection of cytokine-induced death of pancreatic beta cells at 0.1 uM; type: functional, cell-based; conditions: Mus musculus
# [4] = Half life in human liver; type: ADME, organism-based
Compound,Activity [1],remaining [2],Activity [3],half-life [4]
C[C@@H](O)CCCCOc1nn(CCCC[C@@H](C)O)c(=O)c2ccccc12,Active,75%,Active,–
C[C@]12CC[C@H]3[C@@H](CCC4=CC(=O)CC[C@@]43C)[C@@H]1CC[C@@H]2O [TESTOSTERONE],–,9%,–,–
C[C@@H](O)CCCCn1c(=O)c2c(ncn2C)n(C)c1=O [LISOFYLLINE],Active,–,Active,< 3 min
CC(=O)CC(c1ccccc1)c1c(O)c2ccccc2oc1=O (configuration not stated) [WARFARIN],–,105%,–,–
CC(C)NCC(O)COc1cccc2ccccc12 (configuration not stated) [PROPRANOLOL],–,34%,–,–
Cc1cnc2n(C)c(=O)n(CCCC[C@@H](C)O)c(=O)n12,Active,82%,Active,–
